According to patent publication US12102685B2, “Immodulator peptides covalently modified with small molecules” (priority 2020, dated 2024):
Marks after values point to notes of the source that are not given here. Peptide text beside a SMILES is read from it.

Experiments:
[1] = Competition binding assay to metal-charged NTA-coated plates (x2B b)
Experimental: NTA-metal-affinity fluorescence assay was performed using 96-well NTA-metal-coated plates readily available from commercial sources such as Qiagen (Germantown, MD). NTA was charged with ferrous or ferric iron, zinc, copper, calcium, vanadium, ruthenium, cobalt, titanium, manganese or other metals. 400 ng of FITC-labeled immodulator peptide (or biotinylated immodulator peptide complexed to Alexa-488-labeled streptavidin) in PBS buffer was added per plate. After incubation at room temperature for 60 minutes, excess peptide was washed off and peptide was detected by measuring fluorescence (excitation 490 nm, emmission 525 nm) in a fluorometer. • (a) Using FITC-labeled IM3 peptide (1 ug/well) in the fluorescent binding assay: • EDTA-treated control: 2,251±1,186 • Ferrous iron: 170,441±11,264 (p<0.001)* • Copper: 13,644±5566 (p<0.05)* • Calcium: 48,822±11,990 (p<0.01)* • *p values are relative to EDTA-treated control • (b) Competition binding assay to ferrous iron, calcium, copper and zinc-charged NTA-coated plates using FITC-labeled IM3 peptide (0.5 uM) and 8× (4 uM) unlabelled competitor peptides IM3N1, IM3N2 (*all comparisons to PBS control are p<0.01); # fluorescent value of binding to […] was set at 100.

A375 cells = assay: A375 cell viability, CellTiterGlo (x10A); assay type: cell-based; details: 72 hours
Method in brief: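 Peptides at 2 uM were added to A375 cells (2,000/well, DMEM with 10% FBS) 24 h after seeding, in quadruplicate. Following 72 h at 37 °C, CellTiterGlo luminescence was read after 10 min, reported as percent survival.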

[2] = FITC-PI(4,5)P2 binding to plate-bound peptide with calcium (x9A)
Experimental: Immodulator peptides IM1, IM3 and IM5 (400 ng/well) in PBS were bound to streptavidin-coated 96-well plates at room temperature for 60 minutes, in the presence or absence of 500 uM calcium chloride. Each well also received 200 ng cold PPI plus 10 ng FITC-labeled PI(4,5)P2 or PI(4)P1. The tables below show the relative fluorescence (with/without calcium background) expressed as a percentage of the highest binder, FITC-PI(4,5)P2+cold PI(3,5)P2, which was 2,496 fluorescence units. Background binding without calcium was, in all cases, 200-300 fluorescence units.

[3] = FITC-PI(4,5)P2 binding at pH5.2 with metals and cold PPI (x9D)
Experimental: To a streptavidin-coated 96-well plate, 400 ng peptide IM3 or IM5 were bound per well. Each well received 100 uL of sodium acetate buffer pH5.2 containing 500 uM EDTA, Calcium Chloride, Zinc Chloride or Ferric Chloride. Each well additionally contained 50 ng FITC-PI(4,5)P2 plus 2 ug of either cold PI(3,4)P2, PI(4,5)P2, PI(3,5)P2 or buffer. All assays were done in sextuplicate. After incubation at room temperature for 60 mins, wells were washed and counted in a fluorometer set at FITC excitation/emmission wavelengths.

[4] = biological target: T1, DNA-binding domain (DBD) of RXR-alpha (Homo sapiens, UniProt P19793); assay: Binding to RXRa-DBD with or without ferric iron (x3B)
T1 construct: purchased Abcam, Cambridge, MA
T1 sequence (P19793 111-228): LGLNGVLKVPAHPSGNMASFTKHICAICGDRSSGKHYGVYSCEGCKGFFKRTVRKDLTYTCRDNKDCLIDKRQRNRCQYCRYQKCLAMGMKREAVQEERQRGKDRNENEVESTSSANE
Experimental: Experiment x3B. Binding of immodulator peptides to DNA-binding domain (DBD) of RXR-alpha, with or without ferric iron. 100 ng/well recombinant RXRa-DBD (Abcam, Cambridge, MA) was adsorbed to wells of a 96-well plate for 60 minutes at RT, then blocked with 200 uL 1% BSA in PBS buffer overnight. Plate was washed and 800 ng/well Streptavidin-Alexa 488 conjugate (SA488)-labelled IM peptide was added, with or without ferric chloride (5 uM) or 5-fold excess RXRa-DBD. The plate was incubated for 2 hours at room temperature, washed and counted in a standard fluorometer (excitation/emission 485/525 nm).

For `N=C(N)NCCC[C@H](NC(=O)CNC(=O)[C@H](CCCCN)NC(=O)[C@H](CO)NC(=O)[C@@H]1CCCN1C(=O)[C@H](CCCNC(=N)N)NC(=O)[C@H](CS)NC(=O)[C@H](CCC(N)=O)NC(=O)[C@H](CCCCN)NC(=O)[C@H](CCCCN)NC(=O)[C@H](CCCCN)NC(=O)[C@H](Cc1ccc(O)cc1)NC(=O)[C@H](Cc1ccccc1)NC(=O)CNC(=O)[C@H](CCCCN)NC(=O)[C@@H](N)CCCCN)C(=O)N[C@@H](CCCCN)C(=O)N[C@@H](CCCNC(=N)N)C(=O)NCC(=O)N[C@@H](Cc1ccccc1)C(=O)N[C@@H](CS)C(=O)N[C@@H](Cc1c[nH]c2ccccc12)C(=O)O` [IM3] (H-KKGFYKKKQCRPSKGRKRGFCW-OH; N-terminus and C-terminus assumed), the “FITC-IM3 fluorescence, no competitor (PBS)” value ([1]; Calcium, set at 100) was 100.0 ± 1.9, the “FITC-IM3 fluorescence, no competitor (PBS)” value ([1]; Copper, calcium = 100) was 53.0 ± 0.6 and the “FITC-IM3 fluorescence, no competitor (PBS)” value ([1]; Ferrous iron, calcium = 100) was 85.6 ± 5.8. For the same compound, the “FITC-IM3 fluorescence, no competitor (PBS)” value ([1]; Zinc, calcium = 100) was 85.9 ± 5.5, the “percent survival of A375 cells” value (A375 cells; peptide 2 uM + Kin1400 4 uM (RIG-I agonist)) was 62.2** percent and the “percent survival of A375 cells” value (A375 cells; peptide 2 uM, Buffer) was 100.3%. The “fluorescence of the highest binder” value ([2]; FITC-PI(4,5)P2 + cold PI(3,5)P2, calcium) was 2,496 fluorescence units, the “relative fluorescence, FITC-PI(4,5)P2 bound” value ([2]; cold PPI: 3,4,5-P3, calcium) was 3.2 percentage of the highest binder and the “relative fluorescence, FITC-PI(4,5)P2 bound” value ([2]; cold PPI: 3,4-P2, calcium) was 51.5 percentage of the highest binder. For the same compound, the “relative fluorescence, FITC-PI(4,5)P2 bound” value ([2]; cold PPI: 3,5-P2, calcium) was 100.0 percentage of the highest binder, the “relative fluorescence, FITC-PI(4,5)P2 bound” value ([2]; cold PPI: 3-P1, calcium) was 1.7 percentage of the highest binder and the “relative fluorescence, FITC-PI(4,5)P2 bound” value ([2]; cold PPI: 4,5-P2, calcium) was 63.7 percentage of the highest binder. For the same compound, the “relative fluorescence, FITC-PI(4,5)P2 bound” value ([2]; cold PPI: 4-P1, calcium) was 6.3 percentage of the highest binder, the “relative fluorescence, FITC-PI(4,5)P2 bound” value ([2]; cold PPI: 5-P1, calcium) was 10.4 percentage of the highest binder and the “relative fluorescence, FITC-PI(4,5)P2 bound” value ([2]; cold PPI: None, 500 uM calcium chloride) was 2.2 percentage of the highest binder. The “fluorescence, FITC-PI(4,5)P2 bound” value ([3]; Buffer, Calcium) was 142 ± 29, the “fluorescence, FITC-PI(4,5)P2 bound” value ([3]; Buffer, EDTA) was 30 ± 22 and the “fluorescence, FITC-PI(4,5)P2 bound” value ([3]; Buffer, Ferric Iron) was 772 ± 168. The “fluorescence, FITC-PI(4,5)P2 bound” value ([3]; Buffer, Zinc) was 138 ± 388, the “fluorescence, FITC-PI(4,5)P2 bound” value ([3]; Cold PI(3,4)P2, Calcium) was 48 ± 61 and the “fluorescence, FITC-PI(4,5)P2 bound” value ([3]; Cold PI(3,4)P2, EDTA) was 26 ± 25. For the same compound, the “fluorescence, FITC-PI(4,5)P2 bound” value ([3]; Cold PI(3,4)P2, Ferric Iron) was 2,162 ± 269, the “fluorescence, FITC-PI(4,5)P2 bound” value ([3]; Cold PI(3,4)P2, Zinc) was 65 ± 16 and the “fluorescence, FITC-PI(4,5)P2 bound” value ([3]; Cold PI(3,5)P2, Calcium) was 88 ± 22. The “fluorescence, FITC-PI(4,5)P2 bound” value ([3]; Cold PI(3,5)P2, EDTA) was 63 ± 26, the “fluorescence, FITC-PI(4,5)P2 bound” value ([3]; Cold PI(3,5)P2, Ferric Iron) was 2,036 ± 303 and the “fluorescence, FITC-PI(4,5)P2 bound” value ([3]; Cold PI(3,5)P2, Zinc) was 118 ± 43. For the same compound, the “fluorescence, FITC-PI(4,5)P2 bound” value ([3]; Cold PI(4,5)P2, Calcium) was 32 ± 23, the “fluorescence, FITC-PI(4,5)P2 bound” value ([3]; Cold PI(4,5)P2, EDTA) was 10 ± 16 and the “fluorescence, FITC-PI(4,5)P2 bound” value ([3]; Cold PI(4,5)P2, Ferric Iron) was 1,464 ± 320. For the same compound, the “fluorescence, FITC-PI(4,5)P2 bound” value ([3]; Cold PI(4,5)P2, Zinc) was 21 ± 22, the fluorescence ([4]; 100 ng/well RXRa-DBD, no FeCl3, no excess RXRa-DBD) was 687.3 ± 55.4 and the fluorescence ([4]; FeCl3 5 uM, 5X excess RXRa-DBD) was 837.0 ± 30.5. It also gave a fluorescence ([4]; FeCl3 5 uM, no excess RXRa-DBD) of 1161.3 ± 78.5.
